The values that follow come from ChEMBL document CHEMBL3797191, “Isocoumarins, miraculous natural products blessed with diverse pharmacological activities” (Eur J Med Chem, 2016).

One data set concerns the target T1, Kallikrein-5 (Homo sapiens, UniProt Q9Y337).
T1 sequence (Q9Y337 whole entry): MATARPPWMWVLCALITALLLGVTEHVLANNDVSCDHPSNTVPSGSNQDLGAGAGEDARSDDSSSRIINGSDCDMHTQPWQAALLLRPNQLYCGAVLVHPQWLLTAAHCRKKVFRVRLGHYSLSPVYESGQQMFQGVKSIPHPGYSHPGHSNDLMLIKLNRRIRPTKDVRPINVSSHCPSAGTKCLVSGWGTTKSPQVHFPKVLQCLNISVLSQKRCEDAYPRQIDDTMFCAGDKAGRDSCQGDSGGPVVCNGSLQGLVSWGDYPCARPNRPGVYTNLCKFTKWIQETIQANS
Briefly: Competitive inhibition of human kallikrein-5.

The test system of another data set is HepG2. Kind of data set: Cytotoxicity against human HepG2 cells. Type of data set: functional, cell-based.
The subject of data set [1] is MCF7. Briefly: Cytotoxicity against human MCF7 cells. The class given is functional, cell-based.
A further data set concerns Rattus norvegicus. Kind of data set: Anti-ulcer activity in Sprague-Dawley rat stomach assessed as protection against stress-induced gastric ulcer at 25 mg/kg, po pretreated for 30 mins followed by stress measured after 6 hrs relative to control. The class given is functional.
The target of a further data set is Kallikrein-7 (Homo sapiens, UniProt P49862). Briefly: Competitive inhibition of human kallikrein-7.
Chain of Kallikrein-7 (P49862 whole entry): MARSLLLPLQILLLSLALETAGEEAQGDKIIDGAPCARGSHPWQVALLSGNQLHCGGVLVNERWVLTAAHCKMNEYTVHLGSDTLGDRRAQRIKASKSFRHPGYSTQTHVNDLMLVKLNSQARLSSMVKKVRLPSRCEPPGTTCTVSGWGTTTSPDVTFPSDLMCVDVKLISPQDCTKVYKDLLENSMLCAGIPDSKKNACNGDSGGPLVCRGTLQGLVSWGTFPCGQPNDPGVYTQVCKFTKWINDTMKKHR
The nature of data set [2]: Antioxidant activity assessed as radical scavenging activity. Type of data set: physicochemical.
The next data set addresses T2, Aromatase (Homo sapiens, UniProt P11511).
T2 sequence (P11511 whole entry): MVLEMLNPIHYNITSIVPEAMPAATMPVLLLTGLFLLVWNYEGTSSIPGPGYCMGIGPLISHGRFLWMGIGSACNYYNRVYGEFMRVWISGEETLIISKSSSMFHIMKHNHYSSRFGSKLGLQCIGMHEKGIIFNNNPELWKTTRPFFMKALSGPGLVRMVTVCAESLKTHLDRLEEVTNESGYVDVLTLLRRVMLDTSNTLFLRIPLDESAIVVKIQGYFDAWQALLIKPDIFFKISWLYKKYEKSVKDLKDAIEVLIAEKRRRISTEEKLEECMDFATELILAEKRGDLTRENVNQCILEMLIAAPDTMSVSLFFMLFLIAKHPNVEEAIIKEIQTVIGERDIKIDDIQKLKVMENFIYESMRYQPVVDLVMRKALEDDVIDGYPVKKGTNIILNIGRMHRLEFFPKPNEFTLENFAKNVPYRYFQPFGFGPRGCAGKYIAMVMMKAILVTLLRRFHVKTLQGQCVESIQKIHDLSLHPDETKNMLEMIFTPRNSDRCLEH
Kind of data set: Inhibition of aromatase (unknown origin).

For another data set, the system named is P388. Kind of data set: Cytotoxicity against mouse P388 cells. Type of data set: functional, cell-based.
The test system of the next data set is Staphylococcus aureus. Briefly: Antibacterial activity against Staphylococcus aureus. Type of data set: functional.
Data set [3] deals with MCF7. Kind of data set: Cytotoxicity against human MCF7 cells assessed as reduction in cell viability after 3 days by MTT assay. Type of data set: functional, cell-based. The conditions noted are these: MCF7, 72 h.
Data set [4] deals with Tobacco mosaic virus. Briefly: Antiviral activity against TMV assessed as inhibition of viral infection at 20 uM by half-leaf method relative to control. Type of data set: functional.
Data set [5] relates to A549. Briefly: Cytotoxicity against human A549 cells assessed as reduction in cell viability after 3 days by MTT assay. Type of data set: functional, cell-based. The conditions noted are these: A549, 72 h.
A short description of data set [6]: Therapeutic ratio of LC50 to EC50 for Balanus amphitritea. The class given is ADME. The conditions noted are these: amphibalanus amphitrite; read-out: TI.
Data set [7] in a line: Cytotoxicity against human NB4 cells assessed as reduction in cell viability after 48 hrs by MTT assay. Type of data set: functional, cell-based. The conditions noted are these: NB-4, 48 h.
In data set [8] the test system is MCF7. Briefly: Cytotoxicity against human MCF7 cells assessed as reduction in cell viability after 48 hrs by MTT assay. The conditions noted are these: MCF7, 48 h. Type of data set: functional, cell-based.
The subject of data set [9] is Tobacco mosaic virus. Briefly: Antiviral activity against TMV infected in Nicotiana glutinosa leaves assessed as inhibition of lesions at 20 uM pretreated for 30 mins followed by viral infection measured after 3 to 4 days by half-leaf method relative to control. The class given is functional.
The nature of data set [10]: Cytotoxicity against human PC3 cells assessed as reduction in cell viability after 48 hrs by MTT assay. The class given is functional, cell-based. The conditions noted are these: PC-3, 48 h. On the technique in general: Formazan colour is commonly taken as a measure of viable cells.
The next data set relates to SH-SY5Y. Briefly: Cytotoxicity against human SH-SY5Y cells assessed as reduction in cell viability after 48 hrs by MTT assay. Type of data set: functional, cell-based.
The test system of data set [11] is A549. Kind of data set: Cytotoxicity against human A549 cells assessed as reduction in cell viability after 48 hrs by MTT assay. The class given is functional, cell-based. The conditions noted are these: A549, 48 h.
Another data set relates to Echinochloa frumentacea. Briefly: Growth inhibition of Barnyard millet seeds at 50 uM after 5 days relative to control. The class given is functional. To be noted: 120 h, read-out: GI.
For data set [12], the system named is NCI-H187. Kind of data set: Cytotoxicity against human NCI-H187 cells assessed as reduction in cell viability by resazurin microplate assay. Type of data set: functional, cell-based. In general terms: Alamar Blue is a resazurin reagent that responds to reducing activity.
Data set [13] has as its system NCI-H187. Kind of data set: Cytotoxicity against human NCI-H187 cells. The class given is functional, cell-based.
In data set [14] the test system is KB. Kind of data set: Cytotoxicity against human KB cells assessed as reduction in cell viability by resazurin microplate assay. Type of data set: functional, cell-based.
Data set [15] deals with KB. Kind of data set: Cytotoxicity against human KB cells. Type of data set: functional, cell-based.

The structures appear in SMILES notation. ≈ marks a conversion by molar mass, not a printed value.

One may read the Ki as the equilibrium dissociation constant of an inhibitor or competing ligand from its target. Regarding `COc1cc2c(OC)c3cc(C)oc(=O)c3c(O)c2c(O)c1-c1c(OC)cc2c(OC)c3cc(C)oc(=O)c3c(O)c2c1O`, on Kallikrein-5, the affinity, expressed as Ki, was 22.9 µM.
The term IC50 denotes the midpoint of a concentration-inhibition curve. For `C[C@@H]1Cc2cc(O)c(C=O)c(O)c2C(=O)O1`, the values for the IC50 in the data set with HepG2 and in the data set with MCF7 [1] were 6.41 µM and 6.67 µM, respectively.
With `CC(C)C[C@H](NC(=O)[C@@H](O)[C@@H](O)[C@@H](N)CC(N)=O)[C@@H]1Cc2cccc(O)c2C(=O)O1`, the Activity in the data set on Rattus norvegicus is 72%.
For the molecule `COC1=C(c2c(OC)cc3c(c2O)C(=O)C2=C(C[C@H](C)OC2=O)C3=O)C(=O)c2c(O)c3c(c(O)c2C1=O)C[C@H](C)OC3=O`, the figures for the Ki on Kallikrein-5 and on Kallikrein-7 were 22.9 µM and 12.2 µM, respectively.
As to `CC(C)C[C@H](NC(=O)[C@@H](O)[C@@H](O)[C@@H](N)CC(=O)O)[C@@H]1Cc2cccc(O)c2C(=O)O1`, the Activity in the data set with Rattus norvegicus is reported as 100%.
For the molecule `C[C@H](O)C/C=C/CCCCC1Cc2cc(O)cc(O)c2C(=O)O1` (some centres undefined), the IC50 in data set [2] turned out to be 21.7 µM; against Aromatase, 12.3 µM.
Regarding `CC[C@@H]1Cc2cc(O)cc(O)c2C(=O)O1`, the concentration for half-maximal inhibition (IC50) stood at 6.41 µM with HepG2 and 6.67 µM in the data set on MCF7 [1].
As a reminder, the MIC is the lowest concentration that inhibits growth of the organism. In the data set on P388, `CC[C@H](N)[C@H](O)[C@H](O)CC(=O)N[C@@H](CC(C)C)[C@@H]1Cc2cccc(O)c2C(=O)O1` had a 50% inhibitory concentration (IC50) of 15 µM. Moreover, in the data set with Staphylococcus aureus, it took 12 µM (≈ 4.9 µg/mL) to inhibit growth (MIC).
As usually defined, the inhibition is the change of the read-out against control, counted positive when it falls. As for `COc1cc2c(c3c1OC(C)(C)CC3=O)C[C@@H](C)OC2=O`, the concentration for half-maximal inhibition (IC50) came out at 4 µM with MCF7 [3] and 3.8 µM in the data set with A549 [5]. For the same molecule, the inhibition at 20 µM in the data set on Tobacco mosaic virus [4] turned out to be 28.6%.
For the molecule `C/C=C/CC[C@H]1OC(=O)c2c(O)c(CC=C(C)C)cc(O)c2[C@H]1OC`, the selectivity ratio in data set [6] is above 15.
Turning to `COc1ccc(CCCO)c2cc(CC(C)=O)oc(=O)c12`, the half-inhibitory concentration (IC50) (in data set [7]; with MCF7 [8]; in data set [10]; with SH-SY5Y; with A549 [11]) was 2.8 µM each time. Moreover, the inhibition at 20 µM with Tobacco mosaic virus [9] amounted to 30.6%.
For `CC(C)C[C@H](NC(=O)C[C@@H](O)[C@H]1O[C@](C)(O)[C@H](C)NC1CC(N)=O)[C@@H]1Cc2cccc(O)c2C(=O)O1` (some centres undefined), in the data set with Echinochloa frumentacea, the inhibition of growth at 50 µM turned out to be 7%.
As for `Cc1c(O)cc2c(c1O)C(=O)O[C@H](C)C2`, the 50% inhibitory concentration (IC50) in the data set with HepG2 came out at 6.41 µM; with MCF7 [1], 6.67 µM.
Consider `COc1cc(OC)c2c(c1CC=C(C)C)C[C@@H](C)OC2=O`, for which the half-inhibitory concentration (IC50) with MCF7 [3] came out at 4 µM; in the data set with A549 [5], 3.8 µM. For the same molecule, the inhibition at 20 µM in the data set on Tobacco mosaic virus [4] worked out at 28.6%.
Consider `CC(C)C[C@H](NC(=O)[C@@H](O)[C@H]1OC(=O)C[C@@H]1N)[C@@H]1Cc2cccc(O)c2C(=O)O1`, for which the Activity in the data set on Rattus norvegicus was 83%.
Consider `CC(=O)Cc1cc2c(CCCO)cc(O)cc2c(=O)o1`, for which the IC50 (in data set [7]; in the data set on MCF7 [8]; in data set [10]; in the data set with SH-SY5Y; in the data set with A549 [11]) was 2.8 µM in each case. Moreover, the inhibition at 20 µM in the data set on Tobacco mosaic virus [9] was 28.4%.
As for `COc1c(O)c(-c2c(O)c(OC)c(O)c3c(=O)oc(C)cc23)c2cc(C)oc(=O)c2c1O`, the IC50 with NCI-H187 [12] was 8.31 µg/mL (≈ 18.8 µM); in the data set with NCI-H187 [13], 8.31 µg/mL (≈ 18.8 µM); with KB [14], 24.4 µg/mL (≈ 55.2 µM); with KB [15] it was 24.4 µg/mL (≈ 55.2 µM).
For `CC(C)C[C@H](NC(=O)[C@@H](O)[C@H]1O[C@](C)(O)[C@@]2(C)NC(=O)C[C@@H]1N2)[C@@H]1Cc2cccc(O)c2C(=O)O1`, the inhibition of growth at 50 µM with Echinochloa frumentacea stood at 82%.
In turn, `CCCC1Cc2cc(O)c(Br)c(O)c2C(=O)O1` (centres undefined) had a half-inhibitory concentration (IC50) in the data set on P388 of 0.19 µg/mL.
Take `COc1c(O)cc2c(c1CC=C(C)C)C[C@@H](C)OC2=O`: the IC50 was determined as 4 µM with MCF7 [3] and 3.8 µM in the data set with A549 [5]. The inhibition at 20 µM in the data set on Tobacco mosaic virus [4] came to 28.6%.
`CC1(C)CCc2c(cc(O)c3c2CC(CO)OC3=O)O1` (centres undefined): the inhibition at 20 µM in the data set on Tobacco mosaic virus [4] stood at 33.8%.
For `CCCCC[C@H]1OC(=O)c2c(O)c(CC=C(C)C)cc(O)c2[C@H]1OC`, in data set [6], the selectivity ratio was above 15.
Regarding `Cc1c(O)cc2c(c1O)C(=O)O[C@H](CO)C2`, the IC50 in the data set on HepG2 turned out to be 6.41 µM; with MCF7 [1] it was 6.67 µM.
